Measured values: publication PMC7698045, “Milk Protein-Derived Antioxidant Tetrapeptides as Potential Hypopigmenting Agents” (Antioxidants, 2020)
Where two headings read alike, the source gives them in different places. Ends that are not written are not given here. Peptide text beside a SMILES is read from it.

What was measured:
B16F10 cells = assay: Melanogenesis inhibition test in α-MSH-stimulated B16F10 cells; assay type: cell-based
Procedure: (§1) B16F10 cells were cultured in DMEM that was supplemented with 10% (v/v) fetal bovine serum (FBS), 50 μg/mL streptomycin and 50 U/mL penicillin at 37 °C in 5% CO2. Mel-Ab cells were cultured in DMEM with 10% (v/v) FBS, 100 nM 12-O-tetradecanoylphorbol-13-acetate (TPA), 1 nM cholera toxin (CT), 50 μg/mL streptomycin and 50 U/mL penicillin at 37 °C in 5% CO2.
(§2) The effects of the inhibitors (peptides and arbutin) on melanin formation in Mel-Ab cells and B16F10 cells were evaluated. B16F10 cells (5 × 10^3 per well) were cultured in 96-well plates and incubated with the samples (1, 5, 10, 50 and 100 μM) in a complete medium that contained α-MSH for 4 days. Then, the medium was collected from each well and the optical densities were measured at 405 nm. Mel-Ab cells (5 × 10^4 per well) were cultured in 6-well plates and incubated with the samples (1, 5, 10, 50 and 100 μM) in the complete medium for 3 days. Next, the treated cells were then dissolved in 1 mL of 1 N NaOH at 100 °C for 30 min and centrifuged for 20 min at 16,000 g, after which the optical densities of the supernatants were measured at 400 nm.
The percentage of melanin content was calculated via following equation: % melanin content = (A/B) × 100 where A represents the optical density of the sample-treated group and B represents the optical density of the untreated control group. […]

Mel-Ab cells = assay: Melanogenesis inhibition test in Mel-Ab cells; assay type: cell-based, mouse
Procedure: as §1, §2
The percentage of melanin content was calculated via following equation: % melanin content = (A/B) × 100 where A represents the optical density of the sample-treated group and B represents the optical density of the untreated control group. All the tests were conducted independently three times. Each experiment was performed in triplicate and the results were averaged.

mushroom tyrosinase = assay: Mushroom tyrosinase inhibition test with L-DOPA as substrate; assay type: biochemical; settings: for IC50: L-DOPA 2.5 mM, mushroom tyrosinase 100 µg/mL (428 U/mL), 25 °C, 10 min, read-out: IC50 (tyrosinase inhibitory activity); for effect on dopachrome formation (UV-Vis scanning): dopachrome at 475 nm, L-DOPA and mushroom tyrosinase
Procedure: A mushroom tyrosinase inhibition test was carried out with L-DOPA as a substrate. Two hundred fifty microliters of phosphate buffer (0.1 M, pH 6.8), 250 µL of 2.5 mM L-DOPA, 200 µL of water and 25 µL of oligopeptide in DMSO at various concentrations were mixed. The reaction mixture was incubated at 25 °C for 10 min after the addition of 25 µL of aqueous mushroom tyrosinase solution (100 µg/mL, 428 U/mL) and then the UV absorbance was measured at 475 nm. The following equation was used to calculate the percentage of mushroom tyrosinase inhibition: % Tyrosinase Inhibition = (1 − A/B) × 100 where A represents the absorbance at 475 nm of the reaction mixture that contained the inhibitor and B represents the absorbance at 475 nm of a reference reaction mixture that contained DMSO instead of the inhibitor. The concentration of half-maximal inhibitory activity (IC50) values were determined by measuring the tyrosinase inhibitory activity at various peptide concentrations (10, 50, 100, 250 and 500 µM). Each experiment was performed in triplicate and the results were averaged.

[1] = Lipid peroxidation ferric thiocyanate assay (antioxidant activity); settings: lipid peroxidation inhibition after 24 h, 50 °C, dark, peptide 250 μM; for antioxidant activity relative to the original peptide (enhancement): original peptide set to 1.0
Procedure: Linoleic acid and Tween 20 were mixed in 0.1 M sodium phosphate buffer (pH 7.0) to prepare a linoleic acid emulsion (50 mM). […] These reaction mixtures were tightly capped by septa in glass vials and kept at 50 °C for 30 h under dark conditions. To evaluate the antioxidant activity of the oligopeptides by the quantification of lipid peroxidation inhibition, the ferric thiocyanate assay was used with some modifications. An aliquot of the reaction mixture (25 µL) was withdrawn at intervals and mixed with 1.175 mL of 75% ethanol, 25 µL of 20 mM ferrous chloride in 3.5% HCl and 25 µL of 30% ammonium thiocyanate. The absorbance was measured at 500 nm after 3 min, which was when the color development by the ferric thiocyanate complex was maximal. Each experiment was conducted in triplicate and the results were averaged.

[2] = system: phosphorylation of CREB at serin-133; settings: 100 µM, α-MSH-treated B16F10 cells
Procedure: For the Western blot analysis, B16F10 cells were seeded into 6-well plates. After 24 h, the cultured medium was replaced with serum-free DMEM and incubated for another 24 h. Then, the cells were treated with samples in new serum-free media and incubated for 0–360 min. Cells were lysed with RIPA buffer containing protease inhibitor cocktail and phosphatase inhibitor cocktail. Protein concentration was determined using the Bicinchoninic acid (BCA) protein assay kit (Thermo Scientific, Rockford, IL, USA). Protein (20 μg) samples were separated on 4–20% polyacrylamide gels and then transferred to polyvinylidene fluoride (PVDF) membranes (#1704156, Bio-Rad, Hercules, CA, USA), which were blocked with 5% nonfat dry milk in Tris buffered saline solution containing 0.1% Tween 20. The blots were incubated with the primary antibodies at 4 °C overnight. Membrane-bound primary antibodies were detected using HRP-conjugated secondary antibodies and chemiluminescent substrate. Digital images of the blotted membranes were obtained and analyzed using ChemiDoc XRS+ Systems with Image Lab Software (Version 5.1) (Bio-Rad). The relative protein expression of p-cAMP response element-binding protein (CREB) was normalized to that of CREB and glyceraldehyde 3-phosphate dehydrogenase (GAPDH).

Row | Compound | inhibition of melanin production (in words) (B16F10 cells; α-MSH treated B16F10 cells, various concentrations) | reduction of melanin content (Mel-Ab cells; 100 µM, 3 days) | IC50 (mushroom tyrosinase) | effect on dopachrome formation (UV-Vis scanning) (mushroom tyrosinase) | decrease of antioxidant activity relative to the original peptide [1] | antioxidant activity relative to the original peptide (enhancement) [1] | reduction of melanin content (Mel-Ab cells; 5 μM) | tyrosinase inhibition mode (Lineweaver-Burk plot) (mushroom tyrosinase; Km values increase and Vmax values decrease with increasing peptide concentration) | suppression of phosphorylation of CREB ([2]; 10 min) | suppression of phosphorylation of CREB ([2]; 180 min) | suppression of melanin production (B16F10 cells; 50 µM, B16F10 cells)
1 | CC[C@H](C)[C@H](NC(=O)[C@H](Cc1c[nH]cn1)NC(=O)[C@H](CCSC)NC(C)=O)C(=O)N[C@@H](CCCNC(=N)N)C(N)=O [Ac-MHIR] (Ac-MHIR-NH2) | barely inhibits melanin production |  |  |  |  |  |  |  |  |  | 
2 | MHIRL-NH2 [MHIRL, methionine-histidine-isoleucine-arginine-leucine amide] |  | 28% |  |  |  |  |  |  |  |  | 
3 | histidine-isoleucine-arginine-leucine amide [HIRL] |  | 33% | 70 µM | sufficiently suppress dopachrome formation | more than 50% | 1.3–1.8 times |  |  |  |  | 
4 | Methionine-histidine-isoleucine-arginine amide [MHIR] |  | 57% | 83 µM | sufficiently suppress dopachrome formation |  | 1.3–1.8 times | 30% | mixed-mode of inhibition | 18% | 37% | up to 80%
